Source: PMC6591177, “Small Molecule IL-36γ Antagonist as a Novel Therapeutic Approach for Plaque Psoriasis” (Scientific Reports, 2019)
“Also recorded” adds a separate entry of the source. Values belong to the molecule of their own block, whether it stands above or below them.

What was measured:
[1] = tested on: human IL-36γ evoked CXCL1 release from Human HaCaT cells; experiment: human IL-36γ evoked CXCL1 release, human HaCaT cells; type: cell-based; settings: ± S.D.
Experimental: (§1) The immortalized human keratinocyte cell line HaCaT and mouse fibroblast NIH-3T3 cell line were maintained in culture in DMEM with 10% fetal bovine serum and 1% penicillin/streptomycin added (Sigma). Cells were seeded in 96-well tissue culture plates (Corning) at 25,000 cells per well and allowed to adhere and recover overnight at 37 °C in an incubator. Cells were rinsed with PBS (Sigma) and treated with cytokines diluted in 200 μL/well of the medium (DMEM with 0.5% FBS and 1% penicillin/streptomycin) as indicated. In inhibition mode, the agonist concentration used was at the EC80 for chemokine production and the cells were pre-treated with inhibitors for 30 min prior to adding the agonist. After 24 h of treatment, supernatants were collected and IL-8 and CXCL1[28] levels were assessed using a custom immunoassay (Meso Scale Discovery). EC50/IC50 values were estimated from a four-parameter logistic fit using Prism software (GraphPad).

[2] = tested on: IL-36γ evoked CXCL1 release from Mouse NIH-3T3 cells; experiment: IL-36γ evoked CXCL1 release, mouse NIH-3T3 cells; type: cell-based; settings: for IC50: NIH-3T3 cells, n = 4, read-out: IC50 attenuation of CXCL1 release induced by human IL-36γ
Experimental: as §1

[3] = target: T1, human IL-36γ (Homo sapiens, UniProt Q9NZH8); experiment: Thermal shift assay, human IL-36γ; type: binding; settings: 100 μM compound; read-out: increase of melting temperature of human IL-36γ
T1 construct: His6-SUMO-human IL-36γ (18–169); His6-SUMO (N, cleaved yes); made in house; host or cells: E. coli BL21 (DE3)
T1 sequence (Q9NZH8 18-169): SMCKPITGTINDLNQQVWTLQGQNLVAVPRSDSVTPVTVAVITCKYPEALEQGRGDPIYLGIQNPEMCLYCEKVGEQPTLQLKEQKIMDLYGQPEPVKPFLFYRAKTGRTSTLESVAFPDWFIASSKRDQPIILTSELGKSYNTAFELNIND
Experimental: (§2) Thermal shift assays[30] were performed on a Roche LightCycler 480 instrument using Sypro Orange Dye (Invitrogen). Reactions consisted of 0.5–2 µM purified recombinant protein in PBS, pH 7.4, a 1/500 dilution of the stock Sypro Orange reagent, and 100 µM test compounds, resulting in a final DMSO concentration of 1%. The samples were heated from 20 °C to 95 °C at a rate of 0.25 °C per second.

[4] = target: T2, human IL-36α (Homo sapiens, UniProt Q9UHA7); experiment: Thermal shift assay / affinity, human IL-36α; type: binding; settings: thermal shift assay at 100 μM (Supplementary Fig. 4)
T2 construct: using recombinant truncated proteins
T2 sequence (Q9UHA7 6-158): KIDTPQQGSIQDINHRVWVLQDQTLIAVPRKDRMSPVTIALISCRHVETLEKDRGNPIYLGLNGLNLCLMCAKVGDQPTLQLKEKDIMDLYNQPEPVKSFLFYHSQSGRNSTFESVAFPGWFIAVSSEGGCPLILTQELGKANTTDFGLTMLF
Experimental: as §2

[5] = target: T1, human IL-36γ; experiment: Isothermal titration calorimetry; type: binding; settings: 25 °C, pH 7.5; read-out: KD (ITC)
Experimental: All experiments were carried out on a MicroCal^TM Auto-ITC200 at 25 °C in 50 mM HEPES (pH = 7.5), 150 mM NaCl, 0.5 mM TCEP, 2% DMSO. IL-36γ protein solution was buffer exchanged by gel filtration into the isothermal titration calorimetry (ITC) buffer and diluted to 40 µM. The titrations were conducted using an initial injection of 0.2 µL followed by 19 identical injections of 2 µL of 400 µM compound solution. Thermodynamic parameters were calculated using ∆G = ∆H − T∆S = −RTlnKB, where ∆G, ∆H and ∆S are the changes in free energy, enthalpy and entropy of binding respectively. A single binding site model was employed.

[6] = tested on: human IL-36γ induced plasma CXCL1; experiment: hIL-36γ induced CXCL1 release in mouse plasma; type: in vivo; settings: C57BL/6 mice, compounds 10, 30 and 100 mg/kg p.o.; antibody i.p.
Excerpt: Female C57BL/6 mice (9–10 weeks old, 19–23 g) were purchased from Charles River Laboratories. All animal procedures were approved by AbbVie’s Institutional Animal Care and Use Committee (IACUC) and performed in accordance with the relevant IACUC guidelines and regulations. To examine engagement of human IL-36γ with antagonists under in vivo conditions, a mouse acute CXCL1 release assay was established which was similar to one previously reported. Plasma CXCL1 secretion was induced by subcutaneous injection of 2 μg human IL-36γ (in 100 μL PBS) into C57BL/6 mice. Blood was withdrawn via cardiac puncture 2 h after the challenge with IL-36γ. A-552 and A-553 were dosed at 10, 30 and 100 mg/kg p.o. 45 min before IL-36γ challenge. Anti-IL36R antibodies were dosed i.p. at 24 hours before IL-36γ challenge. Plasma CXCL1 levels were analyzed using MSD V-PLEX kit.

[7] = tested on: IL-1β evoked IL-8 release from HaCaT cells; experiment: IL-1β evoked IL-8 release assay in HaCaT cells; type: cell-based, human; settings: agonist mode, n = 3
Experimental: as §1
The IL-8 release assays were miniaturized for HTS hit follow-up. Frozen aliquots of HaCaT cells were thawed, added to complete media, mixed, spun down, resuspended in fresh media, and dispensed using the Multidrop384 into black, clear-bottom 384 well plates at a final density of 4000 cells/well. […] Cell viability was assessed using Cell Titer-Glo (Promega) according to the manufacturers’ instructions.

[8] = tested on: 3D human skin equivalents; experiment: IL-36γ induced 3D skin equivalent model; type: cell-based; settings: 0.3 μg/mL hIL-36γ; 10 μM A-552, 10 μg/mL antibody or IL-36Ra; three days
Experimental: Hematoxylin & eosin (H&E) staining and immunohistochemistry (IHC) were performed using a Leica ST5010 autostainer or Leica Bond RX automated immunostainer. Standardized IHC protocols were used for anti-loricrin staining (Abcam AB85679). Stained tissue slides were digitized for image analysis using a Perkin Elmer P250 whole slide digital pathology slide scanner with 20X objective and extended focus scanning parameters. For quantitative analysis, N = 3 raft samples were analyzed per condition for each stain using whole slide digital analysis software (Indica Labs HALO). Staining was normalized to the length of the raft sample analyzed.
3D skin equivalents (SOR-300-FT-CTR) comprised of human neonatal keratinocytes and fibroblasts were purchased from MatTek, equilibrated for one day in proprietary formulated media (SOR-300-FT-CTR-MM) and then treated as indicated. Treatment groups contained hIL-36γ at 300 ng/mL, 10 μM of A-552, 10 μg/mL anti-IL36R antibody, 10 μg/mL IL-36RA, or 10 μg/mL IgG isotype control either alone or in combination with hIL-36γ. Control skin equivalents were treated with media only. Skin equivalents were treated for three days, with media collected for cytokine release studies at day two and replaced with fresh treatment media. After three days the skin equivalents were either placed in 10% neutral buffered formalin solution (for histology) or frozen (for qRT-PCR).
To measure IL-6, IL-8 and CXCL1 release from 3D skin equivalents diluted sample media collected at day 2 of the treatment (see above) was used in conjunction with V-PLEX multiplex immunoassay for IL-6 and IL-8 and a U-PLEX immunoassay for CXCL1 (Meso Scale Discovery) according to the manufacturers’ protocols.
RNA from frozen 3D skin equivalents was isolated using miRNeasy Mini Kit (Qiagen) per the manufacturers’ instructions. For qRT-PCR determination a CFX384 Real-Time System C1000 Touch Thermocycler was used. […] Each transcript measured was presented as a fold change compared to control using the ∆∆CT method as RNA fold increase where RPLP0 was used as a housekeeping gene.

[9] = target: T3, human IL-36R/IL-1RAcP extracellular domain (ECD) knob-in-hole Fc (human, UniProt Q9HB29 20-335; Q9NPH3 21-367); experiment: AlphaScreen or HTRF; TR-FRET, competitive mode: unlabeled human IL-36γ or IL-36Ra titrated against 6 nM Alexa 488 human IL-36γ, receptor heterodimer 1.5 μg/mL, 6 nM Tb-anti-His antibody; Ki by the Cheng-Prusoff equation; settings: both partners purified
T3 construct: human IL-36 receptor subunit (IL-36R), extracellular domain; human IL-1RAcP co-receptor subunit, extracellular domain; Both proteins were engineered with an Fc 'knob-in-hole' to force heterodimerisation; also called hIL-36R/IL-1RAcP ECD knob-in-hole Fc; human IL-36R/IL-1RAcP ECD Fc heterodimer; not shown: His tag (from the nickel column and the Tb-anti-His detection)
T3 sequence (looked up) 1: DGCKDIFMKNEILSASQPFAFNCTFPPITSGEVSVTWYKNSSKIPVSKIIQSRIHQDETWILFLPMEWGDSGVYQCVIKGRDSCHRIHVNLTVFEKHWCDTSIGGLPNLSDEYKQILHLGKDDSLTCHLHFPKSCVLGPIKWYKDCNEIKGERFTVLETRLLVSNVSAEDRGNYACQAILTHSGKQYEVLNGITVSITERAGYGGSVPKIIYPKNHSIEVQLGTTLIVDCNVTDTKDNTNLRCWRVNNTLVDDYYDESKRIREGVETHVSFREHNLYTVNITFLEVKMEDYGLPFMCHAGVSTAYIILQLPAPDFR
T3 sequence (looked up) 2: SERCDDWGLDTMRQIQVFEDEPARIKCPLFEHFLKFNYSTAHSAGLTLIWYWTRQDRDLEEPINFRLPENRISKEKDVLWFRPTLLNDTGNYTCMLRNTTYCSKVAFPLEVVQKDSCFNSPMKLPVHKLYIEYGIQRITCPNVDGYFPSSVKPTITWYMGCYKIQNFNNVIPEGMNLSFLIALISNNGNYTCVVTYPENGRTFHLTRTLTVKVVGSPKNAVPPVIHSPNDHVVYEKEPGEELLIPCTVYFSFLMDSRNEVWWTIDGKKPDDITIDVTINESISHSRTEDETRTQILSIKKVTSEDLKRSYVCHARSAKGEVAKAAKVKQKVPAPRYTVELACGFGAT

- ΔTm at 100 µM [3]: 1.3 °C
- binding / affinity to human IL-36α [4]: do not bind
- Kd [5]: 3000 ± 330 nM
Molecule: COC(c1ccccc1)(c1ccccc1)[C@@H](Oc1nc(C)cc(-c2ccc(C)c(N)c2)n1)C(=O)O [Compound A-553]
- Ki [1]: 3700 ± 2300 nM
- Ki ([2]; human IL-36γ evoked CXCL1 release, ± S.D.): 3700 ± 1700 nM
- effect on hIL-36γ induced plasma CXCL1 release (in words) [6]: little effect; also recorded: no effect

Molecule: IL-1β: human IL-1β cytokine used in the selectivity assay
- EC50 [7]: 0.0057 ± 0.0038 nM

B1: mouse IL-36Ra: mouse IL-36 receptor antagonist protein (protein, UniProt Q9QYY1 2-156, looked up)
Interleukin-36 receptor …: MVLSGALCFRMKDSALKVLYLHNNQLLAGGLHAEKVIKGEEISVVPNRALDASLSPVILGVQGGSQCLSCGTEKGPILKLEPVNIMELYLGAKESKSFTFYRRDMGLTSSFESAAYPGWFLCTSPEADQPVRLTQIPEDPAWDAPITDFYFQQCD
- IC50 [2]: 19 ± 9 nM

B2: human IL-36Ra: recombinant soluble human IL-36 receptor antagonist (2–155) (protein)
chain: VLSGALCFRMKDSALKVLYLHNNQLLAGGLHAGKVIKGEEISVVPNRWLDASLSPVILGVQGGSQCLSCGVGQEPTLTLEPVNIMELYLGAKESKSFTFYRRDMGLTSSFESAAYPGWFLCTVPEADQPVRLTQLPENGGWNAPITDFYFQQCD
modifications: left off: His6, N-terminal, cleaved | SUMO, N-terminal, cleaved
- IC50 [2]: 23 ± 10 nM
- effect on hIL-36γ induced changes in morphology, gene expression and cytokine production [8]: fully attenuated

- Ki [9]: 0.4 nM
B3: human IL-36γ (18–169) (ligand, UniProt Q9NZH8 18-169, looked up)
chain: SMCKPITGTINDLNQQVWTLQGQNLVAVPRSDSVTPVTVAVITCKYPEALEQGRGDPIYLGIQNPEMCLYCEKVGEQPTLQLKEQKIMDLYGQPEPVKPFLFYRAKTGRTSTLESVAFPDWFIASSKRDQPIILTSELGKSYNTAFELNIND
notes: human IL-36γ, residues 18-169; also called hIL-36γ; unlabeled IL-36γ; source: E. coli BL21 (DE3), purified (nickel column, ULP1 cleavage, Superdex 75 gel filtration); not shown: His6, N-terminal, cleaved; SUMO, N-terminal, cleaved
